This experiment concerns the target T1, human mu opioid receptors (hMOR) (Homo sapiens, UniProt P35372).
T1 construct: expressed in transfected cells; host or cells: CHO cells, stably transfected (G418 selection); membrane preparation
In words: [3H]DAMGO displacement receptor binding assay, CHO-hMOR membranes.

The record followed here is patent publication US7776819B2, “Targeted drug delivery of pain and addiction therapies using opioid receptor-mediated internalization” (The Board of Trustees of the University of Illinois, priority 2005, dated 2010).

Where a SMILES comes first, the peptide text is derived from it.

T1 sequence (P35372 whole entry): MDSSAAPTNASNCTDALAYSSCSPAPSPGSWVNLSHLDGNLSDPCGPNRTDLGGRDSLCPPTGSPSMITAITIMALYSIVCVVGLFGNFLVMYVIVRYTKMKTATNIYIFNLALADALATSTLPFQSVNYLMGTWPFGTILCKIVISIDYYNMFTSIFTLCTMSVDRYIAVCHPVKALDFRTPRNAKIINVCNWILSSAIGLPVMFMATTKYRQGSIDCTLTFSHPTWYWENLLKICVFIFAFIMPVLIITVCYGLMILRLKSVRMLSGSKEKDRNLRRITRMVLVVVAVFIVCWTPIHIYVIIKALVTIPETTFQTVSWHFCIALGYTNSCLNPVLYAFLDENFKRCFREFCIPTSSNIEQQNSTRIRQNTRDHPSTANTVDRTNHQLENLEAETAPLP
Method: Receptor membranes were prepared from CHO cells transfected with opioid mu receptors. Binding was performed at 30° C. in 50 mM pH 7.4 tris HCl buffer for 1 h for CHO-MOR (100 μg protein/reaction, 1 nM 3H-DAMGO). Reactions were terminated by vacuum filtration through GF/B filters pretreated with 0.2% polyethylenimine. These were then washed twice with ice-cold PBS. Filter-bound radioactivity was determined by liquid scintillation counting. Nonspecific binding was determined in the presence of 20 μM DAMGO.
Briefly, membranes were prepared from CHO-hMOR cells by Polytron homogenization at setting 6 for 2 min on ice, followed by centrifugation at 20,000 g for 30 min at 4° C. Protein content was determined by the Coomassie protein assay method (Pierce Biotechnology, Rockford, Ill.) and bovine serum albumin as the standard. MOR receptor binding was conducted in triplicate with 1 nM [^3H]DAMGO in 50 mM Tris HCl buffer (pH 7.4) at 30° C. for 1 h (50 μg protein/reaction). Nonspecific binding was determined in the presence of 20 μM unlabelled DAMGO. Reactions were terminated by rapid vacuum filtration through GF/B filters presoaked with 0.2% polyethylenimine. Filter-bound radioactivity was determined by liquid scintillation counting (Beckman Coulter Inc., Fullerton, Calif.). Binding data representing the mean ±SD were analyzed using Prism program (GraphPad Software, San Diego, Calif.).

By IC50 is commonly meant the concentration that inhibits the measured activity by half. Low readings indicate inhibition by little substance, high ones a need for much substance. Regarding `C[C@@H](NC(=O)[C@@H](N)Cc1ccc(O)cc1)C(=O)N[C@@H](Cc1ccccc1)C(=O)NCC(=O)N[C@@H](Cc1ccc(O)cc1)C(=O)N1CCC[C@H]1C(=O)N[C@@H](CO)C(=O)N[C@@H](CS)C(=O)O` [c-p-dermorphin] (HELM PEPTIDE1{Y.[dA].F.G.Y.P.S.C}$$$$V2.0), the 50% inhibitory concentration (IC50) stood at 0.0253 µM.
